The record followed here is PMC5688156, “The natural product carolacton inhibits folate-dependent C1 metabolism by targeting FolD/MTHFD” (Nature Communications, 2017).

Like-named read-outs stand apart in the source and are kept apart here.

The target in one test is T1, hsMTHFD2 (Homo sapiens, UniProt P13995).
T1 construct: His-tag (vector pHis-TEV) (cleaved yes); made in house; host or cells: E. coli BL21 (DE3)
T1 sequence (P13995 36-350): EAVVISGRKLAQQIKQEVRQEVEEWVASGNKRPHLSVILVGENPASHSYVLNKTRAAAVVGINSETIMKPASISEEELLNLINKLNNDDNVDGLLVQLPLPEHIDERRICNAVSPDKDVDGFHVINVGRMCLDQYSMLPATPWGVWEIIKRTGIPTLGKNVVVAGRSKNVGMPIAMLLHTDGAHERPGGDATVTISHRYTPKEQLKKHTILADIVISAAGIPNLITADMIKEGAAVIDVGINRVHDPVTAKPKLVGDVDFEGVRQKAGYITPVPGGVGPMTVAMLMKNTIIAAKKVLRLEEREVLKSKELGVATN
Kind of test: hsMTHFD2 dehydrogenase (DH) enzyme assay. The format is biochemical. The protocol: (§1) (6R,S)-5,10-Methylene-5,6,7,8-tetrahydrofolic acid ((6R,S)-5,10-CH2-THF) calcium salt and (6R,S)-5,10-Methenyl-5,6,7,8-tetrahydrofolic acid ((6R,S)-5,10-CH=THF) chloride were purchased from Schircks Laboratories (Bauma, Switzerland) and used as substrates for FolD dehydrogenase and cyclohydrolase enzyme assays, respectively. Only the R-isomer, which accounts for 50% of (6R,S)-5,10-CH2-THF and (6R,S)-5,10-CH=THF, respectively, is used by the enzyme. (6R,S)-5,10-CH2-THF was dissolved in N2-spargeled basic buffer (50 mM Tris-HCl (pH 8.0), 100 mM β-mercaptoethanol) as described by Varshney et al.[25]. (6R,S)-5,10-CH=THF was dissolved in DMSO as a 100 mM stock solution.
(§2) Because FolD is a bifunctional enzyme, dehydrogenase and cyclohydrolase activities were determined for FolD enzyme kinetics, respectively. The dehydrogenase activity of FolD was assayed for its substrate 5,10-CH2-THF and cofactor NADP^+ (in the case of MTHFD2, NAD^+ was used as the cofactor) based on monitoring the formation of 5,10-CH=THF, while the cyclohydrolase activity of FolD was determined for its substrate 5,10-CH=THF by monitoring the hydrolysis of […]. The enzyme kinetics for the dehydrogenase activity of all FolDs except hsMTHFD1_DC were determined at 30 °C in 50 mM Tris-HCl (pH 7.5), 30 mM β-mercaptoethanol. The hsMTHFD1_DC dehydrogenase activity was measured in 25 mM MOPS (pH 7.3), 30 mM β-mercaptoethanol at 30 °C. To measure the enzyme kinetic constants for 5,10-CH2-THF, for example in the case of ecFolD, the NADP concentration was fixed at 1 mM and the concentration of 5,10-CH2-THF varied from 5 to 1500 μM (R-isomer). Similarly, to measure the kinetic constants of ecFolD for NADP^+, the concentration of 5,10-CH2-THF (R-isomer) was fixed at 1 mM and the concentration of NADP^+ varied from 10 to 1500 μM. For different FolDs, the varied concentration range of substrates could be different. […] To monitor the formation of 5,10-CH=THF, the absorbance of the reaction mixture was monitored at 350 nm in micro UV cuvettes (BRAND, Essex, Connecticut, USA). The concentration of 5,10-CH=THF produced in the reaction was determined using an extinction co-efficient of 0.0249 μM^−1 cm^−1. […] The consumption of 5,10-CH=THF was measured by recording the absorbance of the reactions at 355 nm using the TECAN Infinite 200 PRO equipped with a monochromator. […] The inhibition constants (K i) of carolacton on FolD were determined by measuring the apparent K m when adding certain amounts of carolacton to the enzyme reactions. […] To compare the inhibition effects of carolacton between the different FolDs, the half maximal inhibitory concentration (IC50) of carolacton on the same amount of enzyme was determined for FolDs involved in this study. […]

Another test concerns the target T2, spFolD (Streptococcus pneumoniae serotype 4, UniProt Q97RI9).
T2 construct: His-tag (TEV-cleavable, vector pHis-TEV); made in house; host or cells: E. coli BL21 (DE3)
Kind of test: spFolD dehydrogenase (DH) enzyme assay. The format is biochemical, S. pneumoniae. As to the method:
as §1, §2

In another test the test system is HCT-116. Kind of test: Cytotoxicity screening, HCT-116 (MTT). The conditions noted are these: for EC50: 5 d treatment, MTT. The format is cell-based, human. As to the method: Half maximal effective concentrations (EC50) on human cancer cell lines were determined as described elsewhere. Human cancer cell lines were maintained as recommended by the depositor (German Collection of Microorganisms and Cell Cultures, DSMZ) and were treated for 5 d with carolacton in serial dilution. The viability of adherent cell types, HCT-116 (ACC 581), KB-3.1 (ACC-158) and KB-V.1 (ACC-149) was assessed by the addition of MTT tetrazolium salt and absorbance measurement at 570 nm. Histiocytic lymphoma U-937 cells (ACC-5) were maintained in RPMI 1640 medium and transferred into folate-free medium prior to the assay. Cell viability was determined by measuring alamar blue fluorescence emission at 590 nm. The values were referenced and EC50 values were determined by sigmoidal curve fitting. The cell lines KB-3.1 and KB-V.1 are originally derived from HeLa, whereas the latter is an MDR subclone of KB-3.1. They were used to directly compare the activity of carolacton on an mdr1 overexpressing and a sensitive cell line.

The mark [1] stands for this setting: 10 nM enzyme, read-out: IC50, carolacton inhibition on DH activity.
[2] abbreviates: 10 nM enzyme, read-out: IC80, carolacton inhibition on DH activity.
The mark [3] stands for this setting: vs 5,10-CH2-THF, read-out: Ki (5,10-CH2-THF), carolacton inhibition on DH activity.

T2 sequence (Q97RI9 whole entry): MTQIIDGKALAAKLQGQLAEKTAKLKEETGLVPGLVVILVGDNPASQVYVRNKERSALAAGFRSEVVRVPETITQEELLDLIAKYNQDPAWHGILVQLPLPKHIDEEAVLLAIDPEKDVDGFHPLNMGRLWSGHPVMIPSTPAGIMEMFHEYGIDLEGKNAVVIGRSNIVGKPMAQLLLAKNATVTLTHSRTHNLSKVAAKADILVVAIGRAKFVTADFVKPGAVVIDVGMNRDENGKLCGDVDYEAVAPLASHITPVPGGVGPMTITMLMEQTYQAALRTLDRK

On to `CO[C@H](CC(=O)O)[C@@H](C)C(=O)[C@H](C)/C=C(\C)[C@H]1OC(=O)[C@H](O)[C@H](O)/C=C/[C@H](C)CCC[C@@H]1C` [carolacton], for which the values for the IC50 at hsMTHFD2 (setting [1]) and at spFolD (setting [1]) were 6.5 nM and 36.8 nM, respectively. For the same molecule, the IC80 on hsMTHFD2 (setting [2]) is 31.7 nM; on spFolD (setting [2]), 169 nM. Further, the inhibitory constant (Ki) stood at 16.7 nM at hsMTHFD2 (cofactor is NAD+ in the case of hsMTHFD2, read-out: Ki (NADP+), carolacton inhibition on DH activity); 6.42 nM on hsMTHFD2 (setting [3]); 42.2 nM at spFolD (setting [3]); 34.2 nM at spFolD (vs NADP+, read-out: Ki (NADP+), carolacton inhibition on DH activity). For the same molecule, the EC50 amounted to 24600 ± 800 nM with HCT-116 and 25000 nM with HCT-116 (Homo sapiens, HCT-116, 120 h). Also, the Maximum inhibition in the test with HCT-116 (inhibition of cell growth, 5 d) is >80%.
